Assay results taken from patent US9725474B2, “Modified nucleic acid” (TAKEDA PHARMACEUTICAL COMPANY LIMITED, priority 2012, dated 2017).
Several values for one entry are separate records, joined by “and”; a condition that tells them apart may be missing. Equal values may be shown once.

Test system: GL3 luciferase gene
Assay: Evaluation of each siRNA using Dual-Luc reporter system (expression-suppressive activity)
Type: cell-based, Human
Conditions: for IC50: HCT116 cells transfected with vector OFF#085 or OFF#086, siRNA reverse transfection with Lipofectamine RNAiMAX, two-night culture, luciferase activity (Renilla/firefly), Dual-Glo, read-out: 50% inhibition concentration; for suppressive activity against luciferase expression compared with control RNA: Dual-Luc reporter system, HCT116 cells, comparison drawn from Table 1
Protocol: Each siRNA was evaluated using a Dual-Luc reporter system as described below.
A restriction enzyme sequence was added to a sequence containing a 19-base sequence complementary to the antisense strand of siRNA against the GL3 luciferase gene (Elbashir S M et al., Nature, Vol. 411, 24 May 2001, 494-498), and its 5′-flanking 10 bases and 3′-flanking 10 bases. The resulting sequence was incorporated into the XhoI/NotI site of a psiCHECK2 plasmld (Promega KK) either in a forward direction (sequence A) or in a reverse direction (sequence B) to construct vectors for the expression of firefly Iuciferase and Renilla luciferase, OFF#085 and OFF#086, respectively.
Human colon cancer cell line HCT116 cells (ATCC) were inoculated at a density of 3×10^6 cells/10 ml/75 cm^2 flask. After overnight culture at 37° C. in 5% CO2, the cells were transfected with the vector OFF#085 or OFF#086 obtained in the preceding paragraph 1) using FuGENE 6 (F. Hoffmann-La Roche Ltd.) and further cultured overnight. Each siRNA synthesized in Example 5 and Comparative Example was diluted with PBS into two serial dilutions of 3.3 nM (final) and 0.0043 nM or 12 serial dilutions from 10 nM to 56 fM and used in reverse transfection of 1.6×10^4 cells/100 μL/well using Lipofectamine RNAiMAX reagent (Invitrogen Corp.). After two-night culture, firefly luciferase activity and Renilla luciferase activity were measured using Dual-Glo Luc Assay kit (Promega KK) according to the attached document. When the luciferase activity (Renilla/firefly) of cells reverse-transfected with 10 nM BLOCK-iT™ Alexa Fluor® Red Fluorescent Oligo (Invitrogen Corp.) was defined as 100%, the luciferase activity of the cells transfected with each siRNA was calculated. The IC50 value was calculated using GraphPad Prism 5.

Row | Substance | IC50 | suppressive activity against luciferase expression compared with control RNA
1 | Control RNA: Control siRNA of sense strand SEQ ID NO: 4 and antisense strand SEQ ID NO: 5, free from compound 11 or 22 (sense CUUACGCUGAGUACUUCGATT; antisense UCGAAGUACUCAGCGUAAGTT; chemistry not fully specified) [reference compound] | 0.024 nM and 0.012 nM | –
2 | siRNA (1): siRNA of sense strand SEQ ID NO: 1 and antisense strand SEQ ID NO: 2 containing one formula (II) partial structure U(K) induced from compound 11 (sense CUUACGCUGAGUACUUCGATT; antisense UCGAAGUACUCAGCGUAAGTT; chemistry not fully specified) | 0.007 nM | higher suppressive activity
3 | siRNA (2): siRNA of sense strand SEQ ID NO: 1 and antisense strand SEQ ID NO: 3 containing one formula (II) partial structure U(K2) induced from compound 22 (sense CUUACGCUGAGUACUUCGATT; antisense UCGAAGUACUCAGCGUAAGTT; chemistry not fully specified) | 0.009 nM | higher suppressive activity
